The text below walks through data of patent publication US11058668B2 (EIDOS THERAPEUTICS, INC., priority 2018, dated 2021).

For orientation: Kd means the constant that tells how readily two partners part at equilibrium. By pKa is commonly meant the negative logarithm of the acid dissociation constant.

Structures are written as SMILES. Where “and” joins values, the source holds several entries; their conditions need not be identical. Identical values can stand only once.

The target of data set [1] is T1, TTR (Homo sapiens, UniProt P02766). Put plainly: Isothermal titration calorimetry (ITC) with TTR in buffer. The following applies: 25° C.; for Kd: PBS pH 7.4, single-site binding model.
Protocol: (§1) Isothermal Titration Calorimetry (ITC). Binding experiments were performed using MicroCal PEAQ-ITC at 25° C. […] 19 injections of ligand (2.0 μL each) were injected into the ITC cell (at 25° C.) to the point that TTR was fully saturated with ligand. Calorimetric data were plotted and fitted using the standard single-site binding model.
Data set [2] addresses T1, TTR. The following applies: Tafamidis Phase 2 (FDA CDER background package); diflunisal observational study (Hanson 2018); cited from earlier work.
Data set [3] can be described thus: pKa values of stabilizers. Type of data set: physicochemical. The following applies: carboxylic acid group.
For data set [4], the target named is purified human TTRwt (Homo sapiens, UniProt P02766). The data set can be described thus: Modified FPE assay with purified TTR plus other serum proteins (selectivity). Type of data set: binding. The following applies: purified TTR 5 μM.
Protocol: The percentage of FPE probe binding to TTR in the presence of serum proteins measured after 3 hr of incubation was used to calculate % TTR occupancy.
The target in data set [5] is T2, human serum albumin (HSA) (Homo sapiens, UniProt P02768). Put plainly: Gel filtration and dialysis binding to human serum albumin. Further details: albumin from human serum; Sigma Aldrich, catalog no.: A3782; purchased Sigma Aldrich A3782; host or cells: human serum. The following applies: 30 μM compound, 600 μM albumin. As for the experimental part:
The concentration of HSA (i.e. concentration at time zero) was also determined using NanoDrop™ (based on calibration curves of known HAS concentrations). […] The concentration of test compounds in these fractions (i.e. conc. at time zero) was evaluated using HPLC (based on calibration curves of known concentration of test compounds). 500 μL of each HSA/test compound samples was then added to a Slide-A-Lyzer Dialysis Cassette G2 (3.5K MWCO, Thermo Scientific, catalog no. P187722). The dialysis Cassettes were placed in 100 ml of assay buffer and stirred at room temperature. After 24 hr, the samples were removed from dialysis cassette and the volume was measured. The concentration of HAS and test compounds were determined using NanoDrop™ and HPLC as described above.
For orientation: Size exclusion chromatography separates by hydrodynamic size, large species first.

The target in data set [6] is T2, human serum albumin (HSA). Put plainly: ITC against human serum albumin. The following applies: ITC titration against human serum albumin.
Protocol: as §1
Data set [7] deals with T3, TTR (Canis lupus familiaris, UniProt A0A8I3NFK0).
T3 construct: from tissue; host or cells: serum of orally dosed beagle dogs
Put plainly: Single oral dose PK-PD in dogs, TTR occupancy by FPE. It counts as in vivo, beagle dog. The following applies: 5 or 20 mg/kg AG10 HCl single oral dose. As for the experimental part:
FPE assay for binding TTR in buffer and human or dog serum. […] The FPE probe is a thioester TTR ligand that is not fluorescent by itself, however upon binding to the T4 binding site of TTR it covalently modifies lysine 15 (K15), creating a fluorescent conjugate. Ligands that bind to the T4 site of TTR will decrease FPE probe binding as observed by lower fluorescence. The FPE assay was also adapted for use with dog serum. FPE with TTR in buffer: An aliquot of 98 μL of TTR in PBS (pH 7.4, final concentration: 2.5 μM) was mixed with 1 μL of test compounds (2.5 μM) and 1 μL of FPE probe (0.18 mM stock solution in DMSO: final concentration: 1.8 μM). The change in fluorescence (λex=328 nm and λem=384 nm) were monitored using a microplate spectrophotometer reader (SpectraMax M5) for 6 hr at rt. […] The change in fluorescence (λex=328 nm and λem=384 nm) were monitored using a microplate spectrophotometer reader (SpectraMax M5) for 6 hr at rt.
Blood was collected and analyzed pre-dose and at 2, 4, 6, 8, 12 and 24 hr post-dose.

Data set [8] relates to TTR. Put plainly: Phase 2 study in ATTR-CM patients, serum TTR concentration (ARUP Prealbumin assay). It counts as in vivo, human. The following applies: all genotypes, ATTR-CM patients. On the procedure:
Screening and randomization will be followed by a 28-day blinded, placebo-controlled treatment period. Approximately 45 subjects are planned to enroll in the Phase 2 study.
An ARUP Prealbumin assay was also used to analyze TTR blood serum concentration in the MAD cohorts tested. ARUP analyzes samples for prealbumin using the prealbumin reagent kit provided by Roche Diagnostics and run on the Roche Diagnostics c702 module. Lowest reportable limit is 3 mg/dL.
The phase 2 clinical study was performed essentially as described in Example 3. A total of 49 patents were included instead of 45: 16 receiving 400 mg bid; 16 receiving 800 mg bid; and 17 receiving placebo.
TTR stabilization was measured ex vivo using the FPE and Western blot assays described at the beginning of the examples section. TTR stabilization was measured in vivo by monitoring TTR serum concentrations in trial participants.

For data set [9], the target named is T4, TTR in human serum (Homo sapiens, UniProt P02766).
T4 construct: pooled human serum (prepared from human male AB plasma, Sigma; catalog no; H4522; TTR concentration 5 μM); tissue Sigma H4522; host or cells: pooled human serum from human male AB plasma
Put plainly: FPE assay in human serum. It counts as binding. The following applies: stabilizers 10 μM, human serum TTR 5 μM; FPE.
Description: FPE assay for binding TTR in buffer and human or dog serum. […] The FPE probe is a thioester TTR ligand that is not fluorescent by itself, however upon binding to the T4 binding site of TTR it covalently modifies lysine 15 (K15), creating a fluorescent conjugate. Ligands that bind to the T4 site of TTR will decrease FPE probe binding as observed by lower fluorescence. […] The change in fluorescence (λex=328 nm and λem=384 nm) were monitored using a microplate spectrophotometer reader (SpectraMax M5) for 6 hr at rt. […] The change in fluorescence (λex=328 nm and λem=384 nm) were monitored using a microplate spectrophotometer reader (SpectraMax M5) for 6 hr at rt.

T2 sequence (P02768 25-609): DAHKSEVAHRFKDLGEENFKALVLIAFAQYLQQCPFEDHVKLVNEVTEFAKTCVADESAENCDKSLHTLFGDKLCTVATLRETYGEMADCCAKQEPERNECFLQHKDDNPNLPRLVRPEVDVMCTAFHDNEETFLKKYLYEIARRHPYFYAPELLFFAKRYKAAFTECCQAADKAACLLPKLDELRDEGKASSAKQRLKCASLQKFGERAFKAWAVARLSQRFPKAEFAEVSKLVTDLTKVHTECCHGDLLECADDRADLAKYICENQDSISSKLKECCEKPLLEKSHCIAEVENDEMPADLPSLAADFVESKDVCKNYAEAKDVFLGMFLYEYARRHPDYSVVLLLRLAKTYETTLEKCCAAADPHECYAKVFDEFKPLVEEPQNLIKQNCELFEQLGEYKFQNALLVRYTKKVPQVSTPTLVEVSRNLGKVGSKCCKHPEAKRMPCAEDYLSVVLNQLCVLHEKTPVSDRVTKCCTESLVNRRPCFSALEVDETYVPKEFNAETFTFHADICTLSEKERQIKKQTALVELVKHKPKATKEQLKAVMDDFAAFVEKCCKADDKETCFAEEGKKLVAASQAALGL

As to `COC(=O)c1ccc(F)c(OCCCc2c(C)n[nH]c2C)c1` [compound 2, Methyl 3-(3-(3,5-dimethyl-1H-pyrazol-4-yl)propoxy)-4-fluorobenzoate], in data set [1], the TΔS was determined as 2.5 kcal/mol, the ΔG is -8.99 kcal/mol, the ΔH is -6.49 kcal/mol and the Kd was 258 ± 17 nM.

As to `O=C(O)c1ccc2nc(-c3cc(Cl)cc(Cl)c3)oc2c1` [Tafamidis, 2-(3,5-dichlorophenyl)-1,3-benzoxazole-6-carboxylic acid, reference compound], the “change in serum TTR levels” value in data set [2] is “increased serum TTR levels”. For the same compound, in data set [3], the pKa is 3.73. The TTR occupancy in data set [4] (in the absence of albumin) turned out to be 68.2±0.1%; in [4] (in the presence of albumin (600 μM)), 41.5±0.9%. For the same compound, the “concentration bound to HSA following dialysis vs buffer for 24 hr” value in [5] came to 18.8 ± 2.1 µM. The “concentration bound to albumin at time 0 (immediately after gel filtration)” value in [5] was found to be 24.1 ± 1.1 µM. This compound registered a Kd in data set [6] of 2300 nM. The compound further showed a TΔS in data set [1] of 6.39 kcal/mol. The ΔH in data set [1] is -5.0 kcal/mol; in data set [1] (listed as tafamidis), -5.00 kcal/mol and -5.0 kcal/mol.

In data set [1], `CCc1n[nH]c(CC)c1CCCOc1cc(C(=O)O)ccc1F` [compound 4, 3-(3-(3,5-diethyl-1H-pyrazol-4-yl)propoxy)-4-fluorobenzoic acid] had a TΔS of 6.0 kcal/mol, a ΔG of -8.1 kcal/mol, a ΔH of -2.1 kcal/mol and a Kd of 1250 ± 79 nM.

As for `Cc1n[nH]c(C)c1CCCOc1cc(C(=O)O)ccc1F.Cl` [AG10 HCl], the “TTR occupancy, dose comparison” value in data set [7] was “enhanced TTR occupancy in the 20 mg/kg vs. 5 mg/kg dose groups”. Further, the “Blood Serum TTR Concentration, Average Change (baseline to day 28)” value is listed as 36% in data set [8] (400 mg b.i.d.) and 50% in data set [8] (800 mg b.i.d.).

`Cc1nn(C)c(C)c1CCCOc1cc(C(=O)O)ccc1F` [compound 3, 4-fluoro-3-(3-(1,3,5-trimethyl-1H-pyrazol-4-yl)propoxy)benzoic acid]: in [1], the TΔS was found to be 4.27 kcal/mol, the ΔG was -9.0 kcal/mol, the ΔH was -4.73 kcal/mol and the Kd amounted to 251 ± 12 nM.

In [1], `Cc1n[nH]c(C)c1CCCOc1cc(C(=O)O)ccc1I` [compound 1, 3-(3-(3,5-dimethyl-1H-pyrazol-4-yl)propoxy)-4-iodobenzoic acid] showed a TΔS of -0.21 kcal/mol, a ΔG of -9.61 kcal/mol, a ΔH of -9.82 kcal/mol and a Kd of 90 ± 14 nM. The “% TTR Occupancy in Serum (2:1 ratio)” value in [9] was 75.9 ± 3.1%.

Turning to `O=C(O)c1cc(-c2ccc(F)cc2F)ccc1O` [Diflunisal, reference compound], the “change in serum TTR levels” value in data set [2] is listed as “increased serum TTR levels”. Also, the pKa in data set [3] came to 2.94. Further, in data set [1], the TΔS turned out to be 0.34 kcal/mol and the ΔH was -8.38 kcal/mol.
